Key:
DYNAMO1-Dnm1 string [1] = target: T1, DYNAMO1-Dnm1 string (Cyanidioschyzon merolae, UniProt A0A125YLX6); assay: malachite green phosphate release (GTPase activity); assay type: biochemical; conditions: 20 mM HEPES, pH 7.5, 30 mM KCl, 1 mM MgCl2, 1 mM DTT; 37 °C; DYNAMO1 at half the amount of Dnm1
T1 construct: gene CYME_CME019C; with Nucleoside diphosphate kinase-like protein DYNAMO1

DYNAMO1-Dnm1 string [2] = target: T1, DYNAMO1-Dnm1 string; assay: as above; assay type: biochemical; conditions: 20 mM HEPES, pH 7.5, 30 mM KCl, 1 mM MgCl2, 1 mM DTT; 37 °C; DYNAMO1 at half the amount of Dnm1; remark: listed apart in the source
DYNAMO1 = target: T2, DYNAMO1 (Cyanidioschyzon merolae, UniProt M1USP1); assay: LC-ESI-MS/MS of nucleotides (nucleoside diphosphate kinase activity); assay type: biochemical; conditions: 100 nM enzyme, 37 °C, 3 min
T2 construct: gene CYME_CML110C; open reading frame in pGEX6p-1, GST tag cut off with PreScission protease, E. coli XL-1 Blue; 17 kDa; tetramer
T2 sequence (M1USP1 1-153): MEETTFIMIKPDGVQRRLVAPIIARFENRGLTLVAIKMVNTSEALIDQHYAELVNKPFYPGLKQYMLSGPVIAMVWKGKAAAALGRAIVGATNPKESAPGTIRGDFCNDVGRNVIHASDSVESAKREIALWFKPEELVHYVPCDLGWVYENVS

[3] = target: recombinant DYNAMO1 (dynamin-based ring motive-force organizer 1), GST removed (Cyanidioschyzon merolae); assay: SEC; 1 μg purified recombinant DYNAMO1 on a Sepharose 6 10/300 GL column, AKTA prime; standards thyroglobulin, γ-globulin, ovalbumin

T1 sequence (A0A125YLX6 entry or part of it, one chain of several): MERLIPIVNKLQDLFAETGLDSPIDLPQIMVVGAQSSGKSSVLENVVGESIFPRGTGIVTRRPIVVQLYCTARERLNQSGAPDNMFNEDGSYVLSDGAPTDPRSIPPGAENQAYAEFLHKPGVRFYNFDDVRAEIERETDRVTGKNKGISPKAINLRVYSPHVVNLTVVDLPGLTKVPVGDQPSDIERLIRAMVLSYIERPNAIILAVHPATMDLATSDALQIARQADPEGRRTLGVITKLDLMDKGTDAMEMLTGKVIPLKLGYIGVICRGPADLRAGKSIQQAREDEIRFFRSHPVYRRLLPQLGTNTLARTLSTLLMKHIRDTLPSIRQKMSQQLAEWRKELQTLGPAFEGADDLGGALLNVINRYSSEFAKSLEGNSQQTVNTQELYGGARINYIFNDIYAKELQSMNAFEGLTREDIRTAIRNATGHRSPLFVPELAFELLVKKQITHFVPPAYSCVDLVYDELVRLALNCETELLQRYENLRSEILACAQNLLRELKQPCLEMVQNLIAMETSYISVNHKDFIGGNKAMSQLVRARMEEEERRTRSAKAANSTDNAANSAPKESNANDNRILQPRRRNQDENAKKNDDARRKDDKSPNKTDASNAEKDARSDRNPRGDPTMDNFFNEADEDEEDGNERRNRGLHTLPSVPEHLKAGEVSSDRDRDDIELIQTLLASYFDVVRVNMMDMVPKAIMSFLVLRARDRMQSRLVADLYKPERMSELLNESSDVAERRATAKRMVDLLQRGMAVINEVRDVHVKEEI

For `Nc1nc2c(ncn2[C@@H]2O[C@H](COP(=O)(O)OP(=O)(O)OP(=O)(O)O)[C@@H](O)[C@H]2O)c(=O)[nH]1` [GTP], the “malachite green phosphate release (GTPase activity)” value (DYNAMO1-Dnm1 string [1]) was “the GTPase activity of Dnm1 was higher in DYNAMO1-Dnm1 and DYNAMO1 H116D-Dnm1 strings” and the “malachite green phosphate release (GTPase activity)” value (DYNAMO1-Dnm1 string [2]) was “the GTPase activity of Dnm1 was higher in DYNAMO1-Dnm1 and DYNAMO1 H116D-Dnm1 strings”.

For `Nc1nc2c(ncn2[C@@H]2O[C@H](COP(=O)(O)OP(=O)(O)O)[C@@H](O)[C@H]2O)c(=O)[nH]1` [GDP], the “LC-ESI-MS/MS of nucleotides (nucleoside diphosphate kinase activity)” value (DYNAMO1; co-substrate ATP) was “generated GTP upon addition of ATP plus GDP (Fig. 1e, f)”.

“recombinant DYNAMO1 (dynamin-based ring motive-force organizer 1), GST removed (natural protein)” showed a stoichiometry N [3] of 4.

In the case of `Nc1ncnc2c1ncn2[C@@H]1O[C@H](COP(=O)(O)OP(=O)(O)OP(=O)(O)O)[C@@H](O)[C@H]1O` [ATP], the “LC-ESI-MS/MS of nucleotides (nucleoside diphosphate kinase activity)” value (DYNAMO1; co-substrate GDP) is reported as “generated GTP upon addition of ATP plus GDP (Fig. 1e, f)”.
